Assay results from patent US12048713B2, “Pharmaceutical composition for reducing protein bound uremic toxins” (Frimline Private Limited, priority 2020, dated 2024).

Tested on: 5/6 Nephrectomy induced chronic kidney disease (CKD) in rat
Assay: 5/6 Nephrectomy induced chronic kidney disease in rat: IS and PCS blood level, mortality
Type: in vivo, Wistar rats (Rattus norvegicus)
Details: for IS Mean: Indoxyl Sulphate blood level, disease control 7.33; for IS Mean / PCS Mean: p.o. daily for 13 weeks; for PCS Mean: P-Cresyl Sulphate blood level, disease control 1.13; for IS % Decreased: decrease in Indoxyl Sulphate blood level compared to disease control; for IS % Decreased / PCS % Decreased: p.o. daily 13 weeks; for PCS % Decreased: decrease in P-Cresyl Sulphate blood level compared to disease control
Protocol: The effect of the compositions of the present invention and other test and reference compositions was studied in animals. For this study, screening effect of synergistic combination or composition/formulation comprising Inulin and other active ingredients against 5/6 Nephrectomy induced chronic kidney disease (CKD) in rat was performed. The following trials were carried out:
Eighty Four (84) female rats (Wistar rats (Rattus norvegicus)) divided into 14 groups (6 per group) were maintained in animal house in a light/dark atmosphere based on a 12 hour cycle having temperature and relative humidity in the range of 19 to 25±2° C. and 30-70%, respectively. To maintain the appropriate conditions, temperature and relative humidity were recorded three times daily. All animals were acclimatized for a minimum period of five days. Animals were maintained in the test setup for minimum 30 minutes once during the acclimatization period to reduce the stress. Animals were weighed on the day of receipt and observed daily for abnormalities if any. Detailed records of acclimatization were also maintained. Rats were housed 3 per cage in clean, sterilized Polypropylene cages. During complete experiment, animals were supplied with the standard certified rat pellet feed and drinking water treated by the reverse osmosis ad libitum.
In order to evaluate the activity against chronic kidney disease, eighty four (84) rats were screened and divided into Fourteen (14) groups. For a comparative analysis, groups were divided as normal control (Group 1 (G1)), sham Control (Group 2 (G2)), disease control (Group 3 (G3)), treatment groups with individual components (Group 4 (G4), Group 5 (G5) and Group 6 (G6) as Inulin, Betaine and Resistant Starch respectively), test composition (Group 7 (G7) to Group 11 (G11) (Combination of Inulin with Betaine at different dose level), test composition Group 12 (G12) to Group 13 (G13) (Combination of Inulin, Betaine and Resistant Starch) and reference standard (Group 14 (G14)) (Activated Charcoal). Table 1 provides the details of the various groups and treatments conducted in the trial wherein G4 to G14 are treatment groups. Experiment was carried out for 3 months in two stages.
The animals under consideration were examined for a study period of 13 weeks and two-stage surgical procedure for kidney ligation and removal were performed.
Stage one: A ventral midline incision into the abdomen was made to expose the animal's left kidney and the organ was freed from the surrounding tissue. A piece of suture was placed and ligated around each pole of the kidney at its one-third position. The one-third kidney on each pole was excised beyond the ligatures and the abdominal incision was closed.
Stage two: This procedure was performed 7 days after stage one. The animals were placed in ventral recumbency and an incision was made parallel to the midline. The abdominal cavity was entered, and the right kidney was made free from the surrounding tissue. The kidney was gently pulled out from the incision and the adrenal gland was freed and replaced into the abdominal cavity. The renal blood vessels and the ureter were ligated or cauterized. The kidney was then removed by transecting the vessels and ureter just distal to the ligature or cauterized section. The skin incision was closed with wound clips.
Treatment: All treatment groups were treated on daily basis for 13 weeks after stage two of surgery. Blood collection and biochemistry analysis were done after completion of the treatment of all treated groups at the end of 13th week treatment.

## C[N+](C)(C)CC(=O)O [Betaine]
  IS Mean: 7.01 mg/L
  PCS Mean: 1.09 mg/L
  IS % Decreased: 4.37%
  PCS % Decreased: 3.54%

## Inulin
  IS Mean: 5.55 mg/L
  PCS Mean: 0.84 mg/L
  IS % Decreased: 24.29%
  PCS % Decreased: 25.66%

## Resistant Starch [RS]
  IS Mean: 6.5 mg/L
  PCS Mean: 1.01 mg/L
  IS % Decreased: 11.33%
  PCS % Decreased: 10.62%
